Assay in all cases: NCI tumour cell line growth inhibition, 48 h
The subject of assay [1] is SK-OV-3.
Assay [2] deals with SF-268.
Assay [3] deals with KM12.
Assay [4] concerns HOP-92.
Assay [5] relates to SW-620.
Assay [6] has as its system LOX IMVI.
The subject of assay [7] is MDA-MB-435.
In assay [8] the test system is HT-29.
Assay [9] concerns A549.
In assay [10] the test system is NCI/ADR-RES.
For assay [11], the system named is ACHN.
Assay [12] has as its system RPMI-8226.
The test system of assay [13] is Malme-3M.
For assay [14], the system named is OVCAR-4.
Assay [15] relates to SN12C.
Assay [16] concerns UO-31.
Assay [17] relates to DU-145.
In assay [18] the test system is HOP-62.
Assay [19] has as its system NCI-H460.
Assay [20] deals with HL-60.

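Compound exposure: 48 hours, 5 concentrations, 96-well plates. The concentration for 50% growth inhibition is given as GI50.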 The source made the active and inactive calls. Cut-off read from the data, not from the text of the source: active = GI50 up to about 1.1 µM and inactive = higher.

Consider `COc1cc(C2=C(C)[C@@H]3CN(CC=C3c3ccc(Cl)cc3)C2)c(S(=O)(=O)O)cc1OC`, for which the GI50 in assay [1], in assay [2], in assay [3], in assay [4], in [5] and in assay [6] was > 100 µM (inactive) in each case. Besides, the GI50 in assay [7], in assay [8], in assay [9], in assay [10], in [11] and in [12] was > 100 µM (inactive) each time. Besides, the GI50 in assay [13], in assay [14], in assay [15], in [16], in assay [17] and in assay [18] was > 100 µM (inactive) each time.

In the case of `Cn1c(=O)c2nc(CCCc3ccc([N+](=O)[O-])cc3)[nH]c2n(C)c1=O`, the GI50 in assay [1], in [2], in [3], in assay [4], in [6] and in assay [7] was > 100 µM (inactive) throughout. Also, the GI50 in assay [8] is > 100 µM (inactive); in [19], 91.2 µM (inactive); in [9], > 100 µM (inactive); in assay [10], > 100 µM (inactive); in [11], > 100 µM (inactive); in assay [12], > 100 µM (inactive). Also, the GI50 in assay [13], in [14], in assay [15], in assay [16], in [17] and in assay [18] was > 100 µM (inactive) each time.

In the case of `CC(C)C1CC=NN1C(=O)OC(C)(C)C` (stereo not given), the GI50 in [1], in [2], in assay [3], in assay [4], in assay [5] and in [6] was > 100 µM (inactive) each time. The GI50 in assay [7], in assay [8], in [19], in assay [9], in assay [10] and in [11] was > 100 µM (inactive) each time. Also, the GI50 in assay [12], in assay [15], in assay [16], in assay [20], in [17] and in assay [18] was > 100 µM (inactive) throughout.

Consider `CCOP(=O)(/C=C/n1cc(C)c(=O)[nH]c1=O)OCC`, for which the GI50 in assay [1], in assay [2], in assay [3], in assay [5], in assay [6] and in assay [7] was > 100 µM (inactive) each time. Also, the GI50 in assay [8], in assay [19], in [9], in [10], in [11] and in [12] was > 100 µM (inactive) throughout. Moreover, the GI50 in assay [14], in [15], in assay [20], in assay [17] and in [18] was > 100 µM (inactive) throughout.

`CC(C)C(NC(=O)Oc1ccccc1)C(=O)NC1c2c(Br)sc(Br)c2C(=O)C1O` (stereo not given): the GI50 in assay [1] is > 25 µM (inactive); in assay [2] it was 6.24 µM (inactive); in assay [3] it was > 25 µM (inactive); in assay [5] it was 6.1 µM (inactive); in assay [6] it was 4.98 µM (inactive); in [7], 6.68 µM (inactive). Besides, the GI50 is 4.2 µM (inactive) in assay [8]; 5.02 µM (inactive) in assay [19]; > 25 µM (inactive) in assay [9]; 5.87 µM (inactive) in assay [10]; 5.56 µM (inactive) in assay [11]; 6.38 µM (inactive) in [13]. In addition, the GI50 in [14] is 2.94 µM (inactive); in [15] it was 5.62 µM (inactive); in [16], 9.64 µM (inactive); in assay [20], 9.12 µM (inactive); in [17], 9.4 µM (inactive).

For the compound `O=C(CC1(O)C(=O)Nc2c(Cl)cc(Cl)cc21)c1cccc([N+](=O)[O-])c1` (stereo not given), the GI50 in [1] was 38.6 µM (inactive); in assay [2], 44.4 µM (inactive); in [3], 24.5 µM (inactive); in assay [4] it was 23.2 µM (inactive); in assay [5], 20.1 µM (inactive); in assay [6], 17 µM (inactive). Besides, the GI50 in [7] was 5.12 µM (inactive); in assay [8] it was 28.9 µM (inactive); in assay [19] it was 39.9 µM (inactive); in assay [9], 39.5 µM (inactive); in [10], 29 µM (inactive); in assay [11], 23 µM (inactive). Also, the GI50 was 28.2 µM (inactive) in assay [12]; 19.4 µM (inactive) in assay [13]; 14.4 µM (inactive) in [14]; 24.7 µM (inactive) in assay [15]; 38.6 µM (inactive) in assay [16]; > 100 µM (inactive) in assay [17]. The GI50 in [18] is 50.6 µM (inactive).

As to `O=c1[nH]c2ccc([N+](=O)[O-])c(Cl)c2c2ccccc12`, the GI50 in [1] was 1.66 µM (inactive); in assay [2] it was 2.74 µM (inactive); in assay [3], 0.33 µM (active); in assay [5], 1.58 µM (inactive); in [6], 1.68 µM (inactive); in assay [7], 2.1 µM (inactive). The GI50 in assay [8] was 0.887 µM (active); in assay [19] it was 1.87 µM (inactive); in assay [9], 4.7 µM (inactive); in [10], 4.98 µM (inactive); in assay [11], 4.48 µM (inactive); in assay [12] it was 0.586 µM (active). The GI50 in [13] was 11.6 µM (inactive); in [14], 10.7 µM (inactive); in assay [15], 2.58 µM (inactive); in [16], 9.33 µM (inactive); in assay [20], 2.35 µM (inactive); in assay [17] it was 3.06 µM (inactive). Further, the GI50 in assay [18] was 10.8 µM (inactive).

`CC1CCc2sc3nc4n(c(=O)c3c2C1)CC(C)S4` (stereo not given): the GI50 in assay [1] was 29.7 µM (inactive); in assay [2], 33.6 µM (inactive); in assay [3] it was 28.3 µM (inactive); in [4] it was 26.1 µM (inactive); in [5], 43.9 µM (inactive); in assay [6], 20.9 µM (inactive). Moreover, the GI50 was 34.4 µM (inactive) in assay [7]; 15.8 µM (inactive) in [8]; 22.5 µM (inactive) in assay [19]; 21 µM (inactive) in assay [9]; 30.8 µM (inactive) in [10]; 24.9 µM (inactive) in assay [11]. In addition, the GI50 was 30.8 µM (inactive) in [12]; 25.7 µM (inactive) in assay [13]; 25.5 µM (inactive) in [14]; 21.5 µM (inactive) in assay [15]; 2.77 µM (inactive) in assay [16]; 28.3 µM (inactive) in assay [17]. For the same compound, in assay [18], the GI50 is 32.7 µM (inactive).

Source of the values: ChEMBL document CHEMBL1201862, “PubChem BioAssay data set” (2004).
